Results reported in ChEMBL document CHEMBL2073834, “Transport of temocaprilat into rat hepatocytes: role of organic anion transporting polypeptide” (J Pharmacol Exp Ther, 1998).

Experiments:
Type in all cases: functional, cell-based
[1] = target: T1, Solute carrier organic anion transporter family member 1A1 (Rattus norvegicus, UniProt P46720); experiment: TP_TRANSPORTER: inhibition of Temocaprilat uptake (Temocaprilat: 0.1 uM, DBSB: 100 uM) in Oatp1-expressing COS-7 cells; settings: monkey, cos-7, 100 µM
T1 sequence (P46720 whole entry): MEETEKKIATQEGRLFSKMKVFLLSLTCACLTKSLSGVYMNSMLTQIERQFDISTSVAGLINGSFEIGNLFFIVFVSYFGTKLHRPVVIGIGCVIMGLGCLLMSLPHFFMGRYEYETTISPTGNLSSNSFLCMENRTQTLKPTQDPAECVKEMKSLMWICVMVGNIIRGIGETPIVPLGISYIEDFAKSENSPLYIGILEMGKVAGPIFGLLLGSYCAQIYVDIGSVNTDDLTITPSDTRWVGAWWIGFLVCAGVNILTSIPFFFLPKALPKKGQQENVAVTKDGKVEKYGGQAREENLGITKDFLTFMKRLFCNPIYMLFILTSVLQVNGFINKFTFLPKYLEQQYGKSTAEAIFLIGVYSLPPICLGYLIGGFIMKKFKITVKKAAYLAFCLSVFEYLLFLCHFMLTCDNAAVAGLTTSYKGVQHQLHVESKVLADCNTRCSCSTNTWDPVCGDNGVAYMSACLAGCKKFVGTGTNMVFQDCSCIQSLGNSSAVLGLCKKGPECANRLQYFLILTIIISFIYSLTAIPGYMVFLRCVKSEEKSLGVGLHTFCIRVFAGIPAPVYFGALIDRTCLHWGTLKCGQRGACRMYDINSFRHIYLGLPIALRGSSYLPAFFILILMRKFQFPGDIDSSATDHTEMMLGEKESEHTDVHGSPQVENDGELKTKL

[2] = target: T1, Solute carrier organic anion transporter family member 1A1; experiment: TP_TRANSPORTER: inhibition of Temocaprilat uptake (Temocaprilat: 0.1 uM, E217betaG: 10 uM) in Oatp1-expressing COS-7 cells; settings: monkey, cos-7, 10 µM
[3] = substrate: C[C@]12CC[C@@H]3c4ccc(O)cc4CC[C@H]3[C@@H]1CC[C@@H]2O[C@@H]1O[C@H](C(=O)O)[C@@H](O)[C@H](O)[C@H]1O; experiment: (§1) TP_TRANSPORTER: uptake in Oatp1-expressing COS-7 cells
[4] = substrate: O=C(O)CN1C[C@@H](c2cccs2)SC[C@H](N[C@@H](CCc2ccccc2)C(=O)O)C1=O; experiment: as §1

## O=C1OC(c2ccc(OS(=O)(=O)O)cc2)(c2ccc(OS(=O)(=O)O)cc2)c2c(Br)ccc(Br)c21 [DIBROMOSULFOPHTHALEIN]
[1]
  Activity: inhibitor [(at a rough estimate) 5 % of control]

## C[C@]12CC[C@@H]3c4ccc(O)cc4CC[C@H]3[C@@H]1CC[C@@H]2O[C@@H]1O[C@H](C(=O)O)[C@@H](O)[C@H](O)[C@H]1O [ESTRADIOL 17B GLUCURONIDE]
[2]
  Activity: inhibitor [(at a rough estimate) 55 % of control]

B1: Solute carrier organic anion transporter family member 1A1 (Rattus norvegicus) (protein)
chain: MEETEKKIATQEGRLFSKMKVFLLSLTCACLTKSLSGVYMNSMLTQIERQFDISTSVAGLINGSFEIGNLFFIVFVSYFGTKLHRPVVIGIGCVIMGLGCLLMSLPHFFMGRYEYETTISPTGNLSSNSFLCMENRTQTLKPTQDPAECVKEMKSLMWICVMVGNIIRGIGETPIVPLGISYIEDFAKSENSPLYIGILEMGKVAGPIFGLLLGSYCAQIYVDIGSVNTDDLTITPSDTRWVGAWWIGFLVCAGVNILTSIPFFFLPKALPKKGQQENVAVTKDGKVEKYGGQAREENLGITKDFLTFMKRLFCNPIYMLFILTSVLQVNGFINKFTFLPKYLEQQYGKSTAEAIFLIGVYSLPPICLGYLIGGFIMKKFKITVKKAAYLAFCLSVFEYLLFLCHFMLTCDNAAVAGLTTSYKGVQHQLHVESKVLADCNTRCSCSTNTWDPVCGDNGVAYMSACLAGCKKFVGTGTNMVFQDCSCIQSLGNSSAVLGLCKKGPECANRLQYFLILTIIISFIYSLTAIPGYMVFLRCVKSEEKSLGVGLHTFCIRVFAGIPAPVYFGALIDRTCLHWGTLKCGQRGACRMYDINSFRHIYLGLPIALRGSSYLPAFFILILMRKFQFPGDIDSSATDHTEMMLGEKESEHTDVHGSPQVENDGELKTKL
[3]
  Km: 11 µM
[4]
  Km: 46.7 µM
